Results from patent US9593144B2, “FPR1 antagonist derivatives and use thereof” (CHANG GUNG UNIVERSITY, priority 2014, dated 2017).
Square brackets hold non-standard residues; d marks the D form. Peptide text beside a SMILES is read from it. * marks the point of attachment. Bz = O=C(c1ccccc1)*

Key:
[1] = biological target: T1, formyl peptide receptor 1 (FPR1) (Homo sapiens, UniProt P21462); experiment: Receptor test: competition with fluorescent FNLFNYK for binding to FPR1 on human neutrophils; settings: membranes of human neutrophils; read-out: inhibition of FNLFNYK bound to FPR1, IC50
T1 construct: the effect of FNLFNYK combined with FPR1 on the membranes of human neutrophils; endogenous in cells; host or cells: human neutrophils
T1 sequence (P21462 1-350): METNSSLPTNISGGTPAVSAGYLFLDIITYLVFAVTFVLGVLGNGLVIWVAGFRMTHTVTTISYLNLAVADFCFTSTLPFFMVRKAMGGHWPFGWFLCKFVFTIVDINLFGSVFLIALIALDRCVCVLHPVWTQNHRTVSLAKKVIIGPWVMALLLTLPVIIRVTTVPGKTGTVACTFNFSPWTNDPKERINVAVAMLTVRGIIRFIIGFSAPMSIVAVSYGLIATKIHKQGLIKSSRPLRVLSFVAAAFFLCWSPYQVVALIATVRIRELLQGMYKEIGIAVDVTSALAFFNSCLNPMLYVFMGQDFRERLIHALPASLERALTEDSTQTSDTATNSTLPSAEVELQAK
From the text: Membranes of human neutrophils contain fMLF receptor, formyl peptide receptor 1 (FPR1), with which formyl-NIe-Leu-Phe-NIe-Tyr-Lys (FNLFNYK) carrying the fluorescence property was combined with FPR1 and competed with the candidate compound for receptor binding. Therefore, by binding with the receptor, it was possible to further clarify whether the compound interacts with the receptor.

[2] = system: MAPKs (ERK, p38 and JNK) and Akt; experiment: Western blot: phosphorylation of MAPKs (ERK, p38, JNK) and Akt in fMLF-stimulated neutrophils; assay type: cell-based, human; settings: HCH6-1 10 μM pre-processed 5 min; fMLF 3 nM, 30 sec
From the text: Mitogen-activated protein kinases (MAPKs) and the expression of Akt phosphorylation are closely related to the regulation of cell inflammatory response. By specific binding of antibodies, each compound's influence on protein expression activated by different signals was observed. As to neutrophils, MAPKs (ERIK, p38, and JNK) and Akt signal transduction pathways are involved in the regulation of superoxide anion generation and elastase release. It is can be seen from the above-mentioned experiments that HCH6-1 is capable of competitively inhibiting superoxide anion generation and elastase release. Whether downstream MAPKs and Akt signal transduction pathways of FPR1 were involved in the regulation of superoxide anion generation and elastase release is explored below.
The experimental conditions were as follows. HCH6-1 (10 μM) was pre-processed for 5 min, followed by stimulus of fMLF (3-30 nM) for 30 sec.

[3] = system: human neutrophils; experiment: cells; assay type: cell-based; settings: for IC50: Neutrophil
From the text: Tables 5 and 6 explore whether there is an anti-inflamatory effect in the dipeptide derivatives. Because ferricytochrome c cannot penetrate cell membranes, it reacts with superoxide anion extracellularly. Also, there are absorptive reactions at 550 nm, and differences among the absorptive reactions can be used to evaluate the influence on the release of superoxide anion. The elastase is released by degranulation as the neutrophil is activated. Tables 5 and 6 use the substrate, MeO-Suc-Ala-Ala-Pro-Val-p-nitroanilide, with the specificity for reacting with the elastase so as to evaluate the influence of the candidate compound on the elastase release.
Blood was taken from healthy human donors (20-32 years old) by venipuncture, following a protocol approved by the Institutional Review Board at Chang Gung Memorial Hospital. Neutrophils were isolated by a standard method of dextran sedimentation prior to centrifugation in a Ficoll Hypaque gradient and the hypotonic lysis of erythrocytes.
The evaluation of O2.^− generation was based on the SOD-inhibitable reduction of ferricytochrome c. In brief, after supplementation with 0.5 mg ml^−1 ferricytochrome c and 1 mM Ca^2+, neutrophils were equilibrated at 37° C. for 2 min and incubated with drugs […].

[4] = system: human neutrophils; experiment: Expression of CD11b on the cell surface of activated neutrophils (flow cytometry); assay type: cell-based
Method: The suspension of neutrophils was mixed at 37° C. and pre-heated for 5 min, and then compounds with different concentrations for measurements were added. […] And the reaction termination is done by on-ice setting. The supernatant was removed after centrifugation, and make the cells suspension again in the balanced salt solution containing bovine serum albumin (BSA). Anti-CD11b with fluorescein isothiocyanate (FITC) labeling was added, and kept on ice and in the dark. Finally, a balanced salt solution was added to terminate the reaction. By means of the flow cytometer for detecting the anti-CD11b with fluorescein isothiocyanate (FITC) labeling, it is possible to further evaluate whether the candidate compounds had influence on CD11b expression on the cell membranes of activated neutrophils according to changes in fluorescence. […].

[5] = system: human neutrophils; experiment: cells; assay type: cell-based; settings: Neutrophil, mean ± SEM
Method: Degranulation of azurophilic granules was determined by elastase release as described above. Experiments were performed using MeO-Suc-[…]-nitroanilide as the elastase substrate. […] Results are expressed as the percentage of elastase release in the drug-free control group, DMSO. Tables 5 and 6 explore whether there is an anti-inflamatory effect in the dipeptide derivatives. Because ferricytochrome c cannot penetrate cell membranes, it reacts with superoxide anion extracellularly. Also, there are absorptive reactions at 550 nm, and differences among the absorptive reactions can be used to evaluate the influence on the release of superoxide anion. The elastase is released by degranulation as the neutrophil is activated. Tables 5 and 6 use the substrate, MeO-Suc-[…]-nitroanilide, with the specificity for reacting with the elastase so as to evaluate the influence of the candidate compound on the elastase release. Blood was taken from healthy human donors (20-32 years old) by venipuncture, following a protocol approved by the Institutional Review Board at Chang Gung Memorial Hospital. Neutrophils were isolated by a standard method of dextran sedimentation prior to centrifugation in a Ficoll Hypaque gradient and the hypotonic lysis of erythrocytes. […] The degranulation of azurophilic granules was determined by elastase release as described above. Experiments were performed using MeO-Suc-[…]-nitroanilide as the elastase substrate. Briefly, after supplementation with MeO-Suc-[…]-nitroanilide ([…] neutrophils (6×10^5 ml^-1) were equilibrated at 37° C. for 2 min and incubated with drugs for 5 min. […] The results are expressed as the percentage of elastase release in the drug-free control group.

IC50 [1]: 2020 ± 340 nM
IC50 ([3]; WKYMVm, mean ± SEM, n = 4 or 8, Table 5, read-out: Superoxide anion WKYMVm IC50): 4980 ± 270 nM
IC50 ([3]; WKYMVm/CB, mean ± SEM, n = 3, Table 4, read-out: WKYMVm/CB O2•− generation (IC50)): 4830 ± 660 nM
IC50 ([3]; human neutrophils triggered by fMLF, read-out: IC50 of inhibitory effect (superoxide anion, fMLF) restated in text): 320 ± 30 nM
IC50 ([3]; human neutrophils, fMLF/CB, mean ± SEM, n = 3, Table 4, read-out: fMLF/CB O2•− generation (IC50)): 230 ± 20 nM
IC50 ([3]; human neutrophils, fMLF, mean ± SEM, n = 4 or 8, Table 5, read-out: Superoxide anion fMLF IC50): 320 ± 30 nM
IC50 ([3]; human neutrophils, fMLP/CB, mean ± SEM, n = 3, Table 1, read-out: Anti-inflammation O2•− generation (IC50)): 230 ± 20 nM
IC50 ([4]; Homo sapiens, Neutrophil, stimulus of fMLF (30 nM)/CB, read-out: inhibition of CD11b expression on cell membranes, IC50): 260 ± 50 nM
IC50 ([5]; WKYMVm, n = 4 or 8, Table 6, read-out: Elastase release WKYMVm IC50): 5220 ± 700 nM
IC50 ([5]; WKYMVm/CB, n = 3, Table 4, read-out: WKYMVm/CB NE release (IC50)): 4610 ± 720 nM
IC50 ([5]; fMLF, n = 4 or 8, Table 6, read-out: Elastase release fMLF IC50): 570 ± 70 nM
IC50 ([5]; fMLF/CB, n = 3, Table 4, read-out: fMLF/CB NE release (IC50)): 600 ± 70 nM
IC50 ([5]; fMLP/CB, n = 3, Table 1, read-out: Anti-inflammation NE release (IC50)): 600 ± 70 nM
Structure (SMILES): COC(=O)[C@@H](Cc1ccccc1)NC(=O)[C@H](Cc1c[nH]c2ccccc12)NC(=O)c1ccccc1 [Compound 3, N—(N-Benzoyl-L-tryptophanyl)-D-phenylalanine methyl ester] (Bz-Trp-[dF]-OMe)
phosphorylation for MAPKs (ERK, p38 and JNK) and Akt [2]: significantly suppressed phosphorylation
selectivity for FPR1/2 and FPR1 (difference WKYMVm vs fMLF) ([3]; superoxide anion, WKYMVm vs fMLF): 15 fold
inhibition of CD11b expression on cell membranes ([4]; stimulus of IL-8 (100 nM), FIG. 2(n)): no inhibitory effects
inhibition of CD11b expression on cell membranes ([4]; stimulus of MMK1, FIG. 2(h)): no inhibitory effects
